Experimental data reported in ChEMBL document CHEMBL3259744, “Synthesis and biological evaluation of cinnamido linked benzophenone hybrids as tubulin polymerization inhibitors and apoptosis inducing agents” (Bioorg Med Chem Lett, 2014).
Active and inactive are the calls of the source. No cut-off for these calls is given here.

Columns and labels:
COLO 205 = assay: Cytotoxicity against human COLO205 cells after 72 hrs by MTT assay; type: functional, cell-based; details: COLO 205, 72 h
DU-145 = assay: Cytotoxicity against human DU145 cells after 72 hrs by MTT assay; type: functional, cell-based; details: DU-145, 72 h
HT-29 = assay: Cytotoxicity against human HT-29 cells after 72 hrs by MTT assay; type: functional, cell-based; details: HT-29, 72 h
PC-3 = assay: Cytotoxicity against human PC3 cells after 72 hrs by MTT assay; type: functional, cell-based; details: PC-3, 72 h
[1] = Cytotoxicity against human ME180 cells after 72 hrs by MTT assay; type: functional, cell-based; details: ME-180, 72 h
B16 = assay: Cytotoxicity against mouse B16 cells after 72 hrs by MTT assay; type: functional, cell-based; details: B16, 72 h
HeLa [2] = assay: Cytotoxicity against human HeLa cells after 72 hrs by MTT assay; type: functional, cell-based
HeLa [3] = assay: Cell cycle arrest in human HeLa cells assessed as accumulation at G1 phase at 0.5 uM after 24 hrs by propidium iodide staining-based FACS analysis (reference value: 71.21%); type: functional
Tubulin (Homo sapiens) [4] = target: T1, Tubulin (Homo sapiens) (UniProt P68371+Q9H4B7+P0DPH7+P68366+Q13509+Q71U36+P04350+Q3ZCM7+P07437+P68363+Q9BQE3+Q6PEY2+Q13885+Q9BVA1+Q9BUF5); assay: Inhibition of tubulin polymerization in human HeLa cells assessed as disruption of microtubule organization at 1 uM after 48 hrs by immunohistochemical analysis; type: cell-based
Tubulin (Homo sapiens) [5] = target: T1, Tubulin (Homo sapiens); assay: Inhibition of tubulin (unknown origin) polymerization at 5 uM measured for 1 hr by fluorescence assay in presence of GTP relative to control; type: protein-complex assay
Tubulin = assay: Inhibition of tubulin (unknown origin) polymerization measured for 1 hr by fluorescence assay in presence of GTP; type: protein-complex assay, Homo sapiens
HeLa [6] = assay: Induction of apoptosis in human HeLa cells assessed as nuclear fragmentation at 1 uM after 48 hrs by Hoechst 33342 staining-based fluorescence microscopic analysis; type: functional, cell-based
HeLa [7] = assay: Induction of apoptosis in human HeLa cells assessed as caspase-3 activation at 2 uM after 48 hrs by Ac-DEVD fluorescence assay relative to control; type: functional
HeLa [8] = assay: Cell cycle arrest in human HeLa cells assessed as accumulation at G2/M phase at 0.5 uM after 24 hrs by propidium iodide staining-based FACS analysis (reference value: 21.10%); type: functional
HeLa [9] = assay: Cell cycle arrest in human HeLa cells assessed as accumulation at sub-G1 phase at 0.5 uM after 24 hrs by propidium iodide staining-based FACS analysis (reference value: 3.07%); type: functional
HeLa [10] = assay: Cell cycle arrest in human HeLa cells assessed as accumulation at S phase at 0.5 uM after 24 hrs by propidium iodide staining-based FACS analysis (reference value: 4.62%); type: functional
HeLa [11] = assay: Induction of apoptosis in human HeLa cells assessed as presence of apoptotic bodies at 1 uM after 48 hrs by Hoechst 33342 staining-based fluorescence microscopic analysis; type: functional, cell-based
HeLa [12] = assay: Induction of apoptosis in human HeLa cells assessed as […] condensation at 1 uM after 48 hrs by Hoechst 33342 staining-based fluorescence microscopic analysis; type: functional, cell-based

inhibition (Tubulin (Homo sapiens) [4])	inhibition (Tubulin (Homo sapiens) [5]) [%]	IC50 (Tubulin) [µM]	SMILES	IC50 (COLO 205) [µM]	IC50 (DU-145) [µM]	IC50 (HT-29) [µM]	IC50 (PC-3) [µM]	IC50 [1] [µM]	IC50 (B16) [µM]	IC50 (HeLa [2]) [µM]	Activity (HeLa [3]) [%]	Activity (HeLa [6])	fold change (FC) (HeLa [7])	Activity (HeLa [8]) [%]	Activity (HeLa [9]) [%]	Activity (HeLa [10]) [%]	Activity (HeLa [11])	Activity (HeLa [12])
–	–	–	COc1cc(/C=C/C(=O)Nc2cc(C(=O)c3cc(OC)c(OC)c(OC)c3)ccc2OC)ccc1F	11.8	12.1	7.7	14.1	15.5	16.3	13.6	–	–	–	–	–	–	–	–
–	–	–	COc1cccc(/C=C/C(=O)Nc2cc(C(=O)c3cc(OC)c(OC)c(OC)c3)ccc2OC)c1	5.1	6.2	1.9	4.7	4.3	3.1	3.1	–	–	–	–	–	–	–	–
–	–	–	COc1ccc(/C=C/C(=O)Nc2cc(C(=O)c3cc(OC)c(OC)c(OC)c3)cc(OC)c2OC)cc1N	10.1	12.7	7.7	11.1	13.9	12.7	15.8	–	–	–	–	–	–	–	–
–	–	–	COc1ccc(/C=C/C(=O)Nc2cc(C(=O)c3cc(OC)c(OC)c(OC)c3)cc(OC)c2OC)cc1	4.8	10.4	3.8	6.3	12.5	9.4	11.2	–	–	–	–	–	–	–	–
–	–	–	COc1cc(C(=O)c2cc(OC)c(OC)c(OC)c2)cc(N)c1OC	4.4	10	3.8	7.4	12.2	12.5	13.5	–	–	–	–	–	–	–	–
–	–	–	COc1ccc(C(=O)c2cc(OC)c(OC)c(OC)c2)cc1NC(=O)/C=C/c1cc(OC)c(OC)c(OC)c1	5.2	6.3	3.1	3.9	2.1	1.2	1.5	–	–	–	–	–	–	–	–
–	–	–	COc1cccc(/C=C/C(=O)Nc2cc(C(=O)c3cc(OC)c(OC)c(OC)c3)cc(OC)c2OC)c1	10.7	12.5	8.7	13.3	8.6	6.7	6.9	–	–	–	–	–	–	–	–
–	–	–	COc1cc(C(=O)c2cc(OC)c(OC)c(OC)c2)cc(NC(=O)/C=C/c2cc(OC)c(OC)c(OC)c2)c1OC	5.3	6.6	3.1	4.8	3.9	2.5	2.5	–	–	–	–	–	–	–	–
–	–	–	COc1ccc(/C=C/C(=O)Nc2cc(C(=O)c3cc(OC)c(OC)c(OC)c3)ccc2OC)cc1	10.9	12.8	5.01	11.1	11.8	8.7	10.7	–	–	–	–	–	–	–	–
–	–	–	C#CCOc1cccc(/C=C/C(=O)Nc2cc(C(=O)c3cc(OC)c(OC)c(OC)c3)cc(OC)c2OC)c1	11.2	13.5	8.1	10.1	8.4	5.1	7.3	–	–	–	–	–	–	–	–
Active	58.3	0.6	COc1ccc(C(=O)c2cc(OC)c(OC)c(OC)c2)cc1N	0.2	2.1	0.05	1.1	0.08	0.03	0.06	53	Active	5	37.36	4.56	5.07	Active	Active
–	–	–	COc1cc(C(=O)c2cc(OC)c(OC)c(OC)c2)cc(NC(=O)/C=C/c2ccc(C(F)(F)F)cc2)c1OC	2.5	5.1	1.9	4.2	3.6	3.3	3	–	–	–	–	–	–	–	–
